From patent publication US20050197372A1 (priority 2002, published 2005)

Tests used:
[1] = tested on: glycoprotein Ib (GPIb, CD42b); assay: Whole blood flow cytometry, GP Ib expression; format: cell-based, human; conditions: for Expression of glycoprotein Ib (GPIb, CD42b): baseline 246.4 ± 26.7
Method: (§1) None of them received aspirin or any other anti-platelet agents. All subjects underwent blood sampling after at least 30 minutes of rest and 2 or more hours of fasting. Blood was drawn between 8 and 10 a.m. in order to avoid any diurnal influence and sampled from an antecubital vein using a 21-gauge butterfly needle containing 3.8% sodium citrate (1:9 volume) after having discarded the first 1.5 ml of free running blood. Eleven Vacutainer tubes (4.5 ml) were collected for a total of 49 ml of whole blood-citrate mixture from each study participant. One tube was kept as an internal control and was incubated with buffer solution. […] To avoid possible observer bias, blood samples were coded and blinded. Sampling procedures, and platelet studies were performed by individuals unaware of the protocol.
(§2) The expression of platelet receptors was determined by using the following monoclonal antibodies: CD31 (platelet endothelial cell adhesion molecule (PECAM-1), CD41 (glycoprotein [GP] IIb/IIIa, (IIb (3), CD42b (GP Ib), CD 51/CD61 ((v (3, or vitronectin receptor), CD62p (P-selectin), CD107a (lysosome associated membrane protein-1; LAMP-1), CD 107b (LAMP-2), CD151 (platelet/endothelial tetraspan antigen-3; PETA-3), and PAC-1 for fibrinogen-platelet (PharMingen, San Diego, Calif.). Platelet-leukocyte interactions were assessed by using dual antibodies for a pan-platelet marker (CD 151), together with CD14, a monocyte/macrophage marker. The blood-citrate mixture (50 μl) was diluted with 450 μl Tris buffered saline (TBS) (10 mmol/L Tris, 0.15 mol/L sodium chloride) and mixed by gently inverting an Eppendorf tube 2 times. Five μl of the corresponding antibodies were then added to each solution and the samples were incubated for 30 minutes. After incubation, 400 μl of 2% buffered paraformaldehyde was added for fixation. The samples were analyzed by a Becton Dickinson FACScan flow cytometer set up to measure fluorescent light scatter, as described in Gurbel P A, et al., J Am Coll Cardiol. 1998; 31: 1466-1473. The data were collected in list mode files and then analyzed. P selectin was expressed as percent positive cells as described in Gurbel P A, et al, Am Heart J 2000; 139: 320-328. Other antigens were expressed as log mean fluorescence intensity.

[2] = patients undergoing valsartan therapy; cited from earlier work
[3] = tested on: platelet/endothelial tetraspan antigen -3 (PETA-3, CD151); assay: Whole blood flow cytometry, PETA-3 expression; format: cell-based, human; conditions: for Expression of platelet/endothelial tetraspan antigen -3 (PETA-3, CD151): baseline 88.7 ± 24.2
Method: as §1, §2

[4] = tested on: platelet-leukocyte microparticles (CD151 + CD14); assay: Whole blood flow cytometry, platelet-leukocyte microparticles; format: cell-based, human; conditions: for Formation of platelet-leukocyte microparticles (CD151 + CD14): baseline 92.2 ± 19.3
Method: as §1, §2

[5] = tested on: human platelets (platelet-rich plasma); assay: Platelet-rich plasma aggregation induced by 5 μM epinephrine; format: cell-based; conditions: for Platelet rich plasma platelet aggregation induced by 5 μM epinephrine: 60 minutes at 37° C., baseline 78 ± 10
Method: as §1
(§3) The citrate and whole blood mixture were centrifuged at 1200 g for 5 minutes in order to obtain platelet-rich plasma (PRP) which was kept at room temperature for use within 1 hour. Platelet counts were determined for each PRP sample with a Coulter Counter ZM (Coulter Co., Hialeah, Fla.). Platelet numbers were adjusted to 3.50×10 ^8/ml with homologous platelet-poor plasma. Platelet aggregation (PA) was induced by 5 μM ADP, and 5 μM epinephrine. All agonists were obtained from Chronolog Corporation (Havertown, Pa.). Aggregation studies were performed using a 4 channel Chronolog Lumi-Aggregometer (model 560-Ca). Aggregation was expressed as the maximum percentage of light transmittance change (% max) from the baseline at the end of the recording time, using platelet-poor plasma as a reference. Aggregation curves were recorded for 6 minutes and analyzed according to internationally established standards. Ruggeri Z M, Semin Hemat 1994; 31: 229-239.

[6] = tested on: human platelets (platelet-rich plasma); assay: Platelet-rich plasma aggregation induced by 5 μM ADP; format: cell-based; conditions: for Platelet rich plasma aggregation induced by 5 μM ADP: 60 minutes at 37° C., baseline 75 ± 8
Method: as §1, §3

[7] = tested on: platelets (agglutination with fibrinogen-coated beads); assay: Ultegra rapid platelet-function assay (RPFA-ASA); format: cell-based, human; conditions: baseline 159 ± 27
Method: as §1
A rapid platelet-function assay cartridge test (RPFA-ASA, Ultegra® Accumetrics, Inc., San Diego, Calif., USA), using polystyrene beads coated cartridges with lyophilized human fibrinogen-coated microparticles, and propyl gallat served as an agonist. The whole blood citrate mixture was added to the cartridge, and agglutination between platelets and coated beads was recorded. The data mirrored turbidometric platelet aggregation and reflected the degree of platelet prostaglandin blockade. Smith J W, et al., Circulation 1999; 99: 620-625. Ultegra® assays were performed in duplicate. An electronic quality control test was performed on each instrument every day of use prior to performing any subject samples.

[8] = tested on: lysosome associated membrane protein -1 (LAMP-1, CD107a); assay: Whole blood flow cytometry, LAMP-1 expression; format: cell-based, human; conditions: baseline 8.7 ± 3.2
Method: as §1, §2

Compound: CC(O)CCC(=O)N(Cc1ccc(-c2ccccc2-c2nnn[nH]2)cc1)[C@H](C(=O)O)C(C)C (stereo partly drawn) [Valeryl 4-hydroxy valsartan, (S)-2{(4-Hydroxy-pentanoyl)-[2′-(1H-tetrazol-5-yl)-biphenyl-4-ylmethyl]amino}-3-methyl-butyric Acid]
- Expression of glycoprotein Ib (GPIb, CD42b) ([1]; drug 10 nM): 236.4 ± 18.7 log MFI
- Expression of glycoprotein Ib (GPIb, CD42b) ([1]; drug 100 nM): 267.9 ± 39.4 log MFI
- Expression of glycoprotein Ib (GPIb, CD42b) ([1]; drug 1 μM): 255.5 ± 24.8 log MFI
- Expression of glycoprotein Ib (GPIb, CD42b) ([1]; drug 10 μM): 249.7 ± 41.8 log MFI
- Expression of glycoprotein Ib (GPIb, CD42b) ([1]; drug 100 μM): 248.1 ± 19.5 log MFI
- Effect on GP Ib (CD42) (in words) ([1]; whole blood flow cytometry): not associated with any effect
- Level in plasma as share of valsartan levels [2]: 10%
- Expression of platelet/endothelial tetraspan antigen -3 (PETA-3, CD151) ([3]; drug 10 nM): 89.4 ± 18.2 log MFI
- Expression of platelet/endothelial tetraspan antigen -3 (PETA-3, CD151) ([3]; drug 100 nM): 92.7 ± 22.2 log MFI
- Expression of platelet/endothelial tetraspan antigen -3 (PETA-3, CD151) ([3]; drug 1 μM): 90.5 ± 15.7 log MFI
- Expression of platelet/endothelial tetraspan antigen -3 (PETA-3, CD151) ([3]; drug 10 μM): 84.2 ± 31.1 log MFI
- Expression of platelet/endothelial tetraspan antigen -3 (PETA-3, CD151) ([3]; drug 100 μM): 93.4 ± 27.4 log MFI
- Effect on PETA-3 (CD151) (in words) ([3]; whole blood flow cytometry): not associated with any effect
- Formation of platelet-leukocyte microparticles (CD151 + CD14) ([4]; drug 10 nM): 99.4 ± 29.7 log MFI
- Formation of platelet-leukocyte microparticles (CD151 + CD14) ([4]; drug 100 nM): 94.3 ± 18.7 log MFI
- Formation of platelet-leukocyte microparticles (CD151 + CD14) ([4]; drug 1 μM): 90.7 ± 20.5 log MFI
- Formation of platelet-leukocyte microparticles (CD151 + CD14) ([4]; drug 10 μM): 89.2 ± 18.7 log MFI
- Formation of platelet-leukocyte microparticles (CD151 + CD14) ([4]; drug 100 μM): 95.6 ± 19.9 log MFI
- Effect on platelet-leukocyte microparticles (CD151+14) (in words) ([4]; whole blood flow cytometry): not associated with any effect
- Effect on epinephrine-induced platelet aggregation (in words) ([5]; PRP, 5 μM epinephrine, preincubation with escalating doses 10 nM to 100 μM): inhibited epinephrine-induced aggregation in concentration 1 μM and 10 μM
- Platelet rich plasma platelet aggregation induced by 5 μM epinephrine ([5]; drug 10 nM): 77 ± 10%
- Platelet rich plasma platelet aggregation induced by 5 μM epinephrine ([5]; drug 100 nM): 76 ± 9%
- Platelet rich plasma platelet aggregation induced by 5 μM epinephrine ([5]; drug 1 μM): 54 ± 11%
- Platelet rich plasma platelet aggregation induced by 5 μM epinephrine ([5]; drug 10 μM): 56 ± 13%
- Platelet rich plasma platelet aggregation induced by 5 μM epinephrine ([5]; drug 100 μM): 52 ± 9%
- Effect on epinephrine-induced aggregation, FIG. 1 aggregation curves (in words) ([5]; one study patient, incubation with 1 μM): blocks epinephrine-induced aggregation
- Effect on ADP-induced platelet aggregation (in words) ([6]; PRP, 5 μM ADP, preincubation with escalating doses 10 nM to 100 μM): did not have any effect
- Platelet rich plasma aggregation induced by 5 μM ADP ([6]; drug 10 nM): 75 ± 6%
- Platelet rich plasma aggregation induced by 5 μM ADP ([6]; drug 100 nM): 76 ± 8%
- Platelet rich plasma aggregation induced by 5 μM ADP ([6]; drug 1 μM): 77 ± 9%
- Platelet rich plasma aggregation induced by 5 μM ADP ([6]; drug 10 μM): 76 ± 8%
- Platelet rich plasma aggregation induced by 5 μM ADP ([6]; drug 100 μM): 77 ± 9%
- Ultegra Analyzer ([7]; drug 10 nM): 177 ± 23 platelet activation units
- Ultegra Analyzer ([7]; drug 100 nM): 181 ± 31 platelet activation units
- Ultegra Analyzer ([7]; drug 1 μM): 134 ± 29 platelet activation units
- Ultegra Analyzer ([7]; drug 10 μM): 119 ± 38 platelet activation units
- Ultegra Analyzer ([7]; drug 100 μM): 168 ± 35 platelet activation units
- Expression of lysosome associated membrane protein -1 (LAMP-1, CD107a) ([8]; drug 10 nM): 10.2 ± 3.6 log MFI
- Expression of lysosome associated membrane protein -1 (LAMP-1, CD107a) ([8]; drug 100 nM): 9.0 ± 4.0 log MFI
- Expression of lysosome associated membrane protein -1 (LAMP-1, CD107a) ([8]; drug 1 μM): 6.6 ± 2.9 log MFI
- Expression of lysosome associated membrane protein -1 (LAMP-1, CD107a) ([8]; drug 10 μM): 5.8 ± 3.2 log MFI
- Expression of lysosome associated membrane protein -1 (LAMP-1, CD107a) ([8]; drug 100 μM): 8.0 ± 3.4 log MFI
